According to ChEMBL document CHEMBL1201862, “PubChem BioAssay data set” (2004):
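Protocol summary: plate cells (96-well), add compound at 5 concentrations, incubate 48 h, interpolate endpoints linearly. Abbreviation: GI50, concentration required for 50% inhibition of growth.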 Calls of active or inactive are those of the source. Rule as the data show it: active = GI50 up to about 1.1 µM and inactive = higher.

Assays:
Assay in all cases: growth of human tumour cells (NCI), 48 h
UO-31 = tested on: UO-31
OVCAR-3 = tested on: OVCAR-3
MDA-MB-435 = tested on: MDA-MB-435
A498 = tested on: A498
HL-60 = tested on: HL-60
M14 = tested on: M14
HCC 2998 = tested on: HCC 2998
TK-10 = tested on: TK-10
DU-145 = tested on: DU-145
MCF7 = tested on: MCF7
MDA-MB-231 = tested on: MDA-MB-231
NCI-H522 = tested on: NCI-H522
UACC-62 = tested on: UACC-62
EKVX = tested on: EKVX
786-0 = tested on: 786-0

| SMILES | GI50 (UO-31) | GI50 (OVCAR-3) | GI50 (MDA-MB-435) | GI50 (A498) | GI50 (HL-60) | GI50 (M14) | GI50 (HCC 2998) | GI50 (TK-10) | GI50 (DU-145) | GI50 (MCF7) | GI50 (MDA-MB-231) | GI50 (NCI-H522) | GI50 (UACC-62) | GI50 (EKVX) | GI50 (786-0) |
| --- | --- | --- | --- | --- | --- | --- | --- | --- | --- | --- | --- | --- | --- | --- | --- |
| CCOC(=O)NC(Nc1ncccn1)(C(F)(F)F)C(F)(F)F | > 100 µM (inactive) | > 100 µM (inactive) | > 100 µM (inactive) | > 100 µM (inactive) | > 100 µM (inactive) | > 100 µM (inactive) | > 100 µM (inactive) | > 100 µM (inactive) | > 100 µM (inactive) | > 100 µM (inactive) | > 100 µM (inactive) | > 100 µM (inactive) | > 100 µM (inactive) | > 100 µM (inactive) |  |
| N#Cc1c(C#N)c(SSc2c(C#N)c(C#N)c(N)n2-c2cccc3ccccc23)n(-c2cccc3ccccc23)c1N | 2.34 µM (inactive) | 1.84 µM (inactive) | 8.77 µM (inactive) | 30.2 µM (inactive) | 2.33 µM (inactive) | 3.08 µM (inactive) | 20.1 µM (inactive) | 5.77 µM (inactive) | 21.9 µM (inactive) | 3.47 µM (inactive) | 18.4 µM (inactive) | 1.5 µM (inactive) | 18 µM (inactive) | 5.51 µM (inactive) | 1.98 µM (inactive) |
| CCOC(=O)CCN1C(=O)c2c(NC(=O)C(=O)O)cccc2S1(=O)=O | > 100 µM (inactive) |  | > 100 µM (inactive) | > 100 µM (inactive) | > 100 µM (inactive) | > 100 µM (inactive) | > 100 µM (inactive) | > 100 µM (inactive) | > 100 µM (inactive) | > 100 µM (inactive) | > 100 µM (inactive) | > 100 µM (inactive) | > 100 µM (inactive) | > 100 µM (inactive) | > 100 µM (inactive) |
| Cc1cc(C)c2c(=O)n(CN3CCC(O)(c4ccccc4)CC3)sc2n1 | 17.2 µM (inactive) | 38.4 µM (inactive) | 20.4 µM (inactive) | 78.3 µM (inactive) | 20 µM (inactive) | 50 µM (inactive) | 27.4 µM (inactive) | 11.6 µM (inactive) | 38.3 µM (inactive) | 47.9 µM (inactive) | 73.1 µM (inactive) | 11.8 µM (inactive) | 50.9 µM (inactive) | 25 µM (inactive) | 17.1 µM (inactive) |
| COC(=O)c1ccc(NC(=O)c2cc3c(cc2Br)OCO3)o1 | > 100 µM (inactive) | > 100 µM (inactive) | 32.7 µM (inactive) | > 100 µM (inactive) | > 100 µM (inactive) | > 100 µM (inactive) | > 100 µM (inactive) | > 100 µM (inactive) | > 100 µM (inactive) | > 100 µM (inactive) | > 100 µM (inactive) | 15.7 µM (inactive) | > 100 µM (inactive) | > 100 µM (inactive) | > 100 µM (inactive) |
| Cc1nc(Cl)c(C)c(Cl)n1 |  | > 100 µM (inactive) | 33.3 µM (inactive) | > 100 µM (inactive) | 8.59 µM (inactive) | 37.7 µM (inactive) | 99.1 µM (inactive) | > 100 µM (inactive) | > 100 µM (inactive) | > 84.5 µM (inactive) | > 100 µM (inactive) | < 0.01 µM (active) | > 80.4 µM (inactive) | > 27 µM (inactive) | > 100 µM (inactive) |
| O=[N+]([O-])/C(C(Cl)=C(Cl)Cl)=C(/Br)SCc1ccccc1 | 2.45 µM (inactive) | 1.86 µM (inactive) | 1.47 µM (inactive) | 7.01 µM (inactive) | 0.222 µM (active) | 2.4 µM (inactive) | 7.21 µM (inactive) | 3.08 µM (inactive) | 12.9 µM (inactive) | 2.84 µM (inactive) | 2.72 µM (inactive) | 1.71 µM (inactive) | 3.42 µM (inactive) | 5.46 µM (inactive) | 2.1 µM (inactive) |
| N#CC(C#N)=Cc1ccc(C=C2SC3=C(SCCS3)S2)s1 | > 100 µM (inactive) | 2.5 µM (inactive) | 0.82 µM (active) | 10.4 µM (inactive) | 0.286 µM (active) | 12.4 µM (inactive) | 15.8 µM (inactive) | 2.07 µM (inactive) | > 100 µM (inactive) | 2.24 µM (inactive) | 33.7 µM (inactive) | 2.99 µM (inactive) | 2.89 µM (inactive) | > 100 µM (inactive) | 13.4 µM (inactive) |
| O=C1/C(=C\c2cccc(Oc3ccccc3)c2)S(=O)(=O)C(c2ccccc2)N1c1ccccc1Cl (stereo not drawn) | 19.7 µM (inactive) | 20.9 µM (inactive) | 27.7 µM (inactive) | 45.6 µM (inactive) | 13.9 µM (inactive) | 28.6 µM (inactive) | 49.3 µM (inactive) | 77.1 µM (inactive) | 36.1 µM (inactive) | 21.9 µM (inactive) | 28.2 µM (inactive) | 18.4 µM (inactive) | 25.2 µM (inactive) | 22.3 µM (inactive) | 29.3 µM (inactive) |
| CCCCCCCCCCCCCCCCNC(=O)/C(=C\c1ccc(Cl)c(Cl)c1)NC(=O)c1ccccc1 | 42 µM (inactive) | > 100 µM (inactive) | > 100 µM (inactive) | 19.9 µM (inactive) | 0.431 µM (active) | > 100 µM (inactive) |  | 20 µM (inactive) | 27.4 µM (inactive) | 25.9 µM (inactive) | 18 µM (inactive) | 37.2 µM (inactive) |  | 44.3 µM (inactive) | 19.4 µM (inactive) |
| CSc1ccc(-c2cc(-c3nc4ccccc4[nH]3)nc(N)c2C#N)cc1 |  | 16.5 µM (inactive) | 17.7 µM (inactive) | 15 µM (inactive) | 20 µM (inactive) | 16.8 µM (inactive) | 17.1 µM (inactive) | 31.6 µM (inactive) | 17.4 µM (inactive) | 15.6 µM (inactive) | 17.1 µM (inactive) | 16.1 µM (inactive) | 12.3 µM (inactive) | 20.1 µM (inactive) | 26.1 µM (inactive) |
| O=[N+]([O-])c1ccc2c(c1)c1nn2CCCCOc2nn(c3ccc([N+](=O)[O-])cc23)CCCCO1 | > 100 µM (inactive) | > 100 µM (inactive) | > 100 µM (inactive) | > 100 µM (inactive) | > 100 µM (inactive) | > 100 µM (inactive) | > 100 µM (inactive) |  | > 100 µM (inactive) | > 100 µM (inactive) | > 100 µM (inactive) | > 100 µM (inactive) |  | > 100 µM (inactive) | > 100 µM (inactive) |
| COc1cc(OC)c(/C=C\c2cc(/C=C/c3c(OC)cc(OC)cc3OC)c3ccccc3[n+]2C)c(OC)c1 | 7.16 µM (inactive) | 2.33 µM (inactive) | 2.48 µM (inactive) | 4.59 µM (inactive) | 2 µM (inactive) | 2.56 µM (inactive) | 3.48 µM (inactive) | 16 µM (inactive) | 5.94 µM (inactive) | 2.86 µM (inactive) | 4.03 µM (inactive) | 1.96 µM (inactive) | 2.82 µM (inactive) | 2.99 µM (inactive) | 2.2 µM (inactive) |
| O=C(Nc1cccc(NC(=O)C(=O)C2CCC3=C(Sc4ccccc4N3)C2=O)n1)C(=O)C1CCC2=C(Sc3ccccc3N2)C1=O (stereo not drawn) | 47.3 µM (inactive) | > 100 µM (inactive) | 85.9 µM (inactive) | > 100 µM (inactive) | 39.5 µM (inactive) | 86.3 µM (inactive) | 29.8 µM (inactive) |  | > 100 µM (inactive) | 75.7 µM (inactive) | > 100 µM (inactive) | 74.6 µM (inactive) | 96.4 µM (inactive) | 85.1 µM (inactive) | 91.8 µM (inactive) |
| C/C(Nc1ccc(Cl)cc1)=C1/CCOC1=O | 2.81 µM (inactive) | 46.8 µM (inactive) | 0.698 µM (active) | > 100 µM (inactive) | 1.15 µM (inactive) | 2.62 µM (inactive) | 5.68 µM (inactive) | 46.8 µM (inactive) | 6.31 µM (inactive) | 13.2 µM (inactive) | > 100 µM (inactive) | > 70 µM (inactive) | 0.168 µM (active) | 34.3 µM (inactive) | > 100 µM (inactive) |
| CN(C)Cc1cc(/N=N/c2cccc(Cl)c2)ccc1O | 8.32 µM (inactive) | 13.6 µM (inactive) | 4.22 µM (inactive) | 10.9 µM (inactive) | 17.3 µM (inactive) | 9.66 µM (inactive) | 14.3 µM (inactive) | 10.6 µM (inactive) | 6.9 µM (inactive) | 14.8 µM (inactive) | 9.1 µM (inactive) | 11.7 µM (inactive) | 3.61 µM (inactive) |  | 13.8 µM (inactive) |
| C[C@]12CC[C@H]3[C@@H](CC=C4C[C@@H](O)CC[C@@]43C)[C@@H]1C/C(=C\c1ccncc1)[C@@H]2O | 27.1 µM (inactive) | 23.7 µM (inactive) | 19.7 µM (inactive) | 13.9 µM (inactive) | 10.2 µM (inactive) | 16.5 µM (inactive) | 31.8 µM (inactive) | 39.3 µM (inactive) | 23.1 µM (inactive) | 23 µM (inactive) | 28.8 µM (inactive) | 16.3 µM (inactive) | 15.4 µM (inactive) | 14.8 µM (inactive) | 21.1 µM (inactive) |
| c1ccc([P+](c2ccccc2)(c2ccccc2)c2ccc([P+](c3ccccc3)(c3ccccc3)c3ccccc3)c3ccccc23)cc1 | > 100 µM (inactive) | 46.3 µM (inactive) | 84.3 µM (inactive) | > 100 µM (inactive) | 41.6 µM (inactive) | > 100 µM (inactive) | 49.2 µM (inactive) | > 100 µM (inactive) | 67.3 µM (inactive) | 47 µM (inactive) | > 100 µM (inactive) | 44.4 µM (inactive) | 86.5 µM (inactive) |  | > 100 µM (inactive) |
| Cn1cnc2c(NCc3ccccc3)nc(NCCO)nc21 [OLOMOUCINE] | 31.4 µM (inactive) |  | 78.7 µM (inactive) | 103 µM (inactive) | 36.9 µM (inactive) | 78.9 µM (inactive) | 79.1 µM (inactive) | 63.8 µM (inactive) | 34.1 µM (inactive) | 39.7 µM (inactive) | 92.7 µM (inactive) | 51.4 µM (inactive) | 32.6 µM (inactive) | 94.4 µM (inactive) | 60.7 µM (inactive) |
